The term Ki denotes the equilibrium dissociation constant of an inhibitor or competing ligand from its target. The low end stands for tighter binding, the high end for weaker binding. In general, pKi refers to the negative decadic logarithm of the Ki, by convention in mol/L. Higher therefore signals a low Ki.

The source of these data is ChEMBL document CHEMBL1144796, “Carbonic anhydrase inhibitors. Interaction of indapamide and related diuretics with 12 mammalian isozymes and X-ray crystallographic studies for the indapamide-isozyme II adduct” (Bioorg Med Chem Lett, 2008).

pKi: −log10 of the molar value.

Test [1] concerns the target Carbonic anhydrase 3 (Homo sapiens) (UniProt P07451).
For test [2], the target named is Carbonic anhydrase 14 (Homo sapiens) (UniProt Q9ULX7).
Carbonic anhydrase 14 (Homo sapiens), sequence (Q9ULX7 whole entry): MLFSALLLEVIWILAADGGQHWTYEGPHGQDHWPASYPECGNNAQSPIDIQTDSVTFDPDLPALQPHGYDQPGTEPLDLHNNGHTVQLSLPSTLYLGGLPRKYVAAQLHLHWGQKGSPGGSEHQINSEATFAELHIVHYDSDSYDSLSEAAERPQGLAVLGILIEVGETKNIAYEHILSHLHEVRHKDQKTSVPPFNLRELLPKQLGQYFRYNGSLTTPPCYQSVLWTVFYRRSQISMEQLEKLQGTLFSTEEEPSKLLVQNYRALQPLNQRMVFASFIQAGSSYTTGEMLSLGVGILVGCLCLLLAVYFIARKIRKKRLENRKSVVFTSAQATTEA
Test [3] deals with Carbonic anhydrase 2 (Homo sapiens) (UniProt P00918).
Test [4] concerns the target Carbonic anhydrase 12 (Homo sapiens) (UniProt O43570).
For test [5], the target named is Carbonic anhydrase 4 (Homo sapiens) (UniProt P22748).
Carbonic anhydrase 4 (Homo sapiens), sequence (P22748 whole entry): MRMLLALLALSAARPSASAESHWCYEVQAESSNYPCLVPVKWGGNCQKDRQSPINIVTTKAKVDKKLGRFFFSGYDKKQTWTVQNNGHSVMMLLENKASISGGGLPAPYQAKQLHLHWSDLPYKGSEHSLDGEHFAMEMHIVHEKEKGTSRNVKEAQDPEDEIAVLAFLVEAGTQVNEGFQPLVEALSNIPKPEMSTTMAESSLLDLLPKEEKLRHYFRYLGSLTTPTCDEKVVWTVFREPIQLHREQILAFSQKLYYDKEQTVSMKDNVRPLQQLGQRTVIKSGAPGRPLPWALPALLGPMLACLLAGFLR
The target of test [6] is Carbonic anhydrase 5B, mitochondrial (Homo sapiens) (UniProt Q9Y2D0).
Carbonic anhydrase 5B, mitochondrial (Homo sapiens), sequence (Q9Y2D0 whole entry): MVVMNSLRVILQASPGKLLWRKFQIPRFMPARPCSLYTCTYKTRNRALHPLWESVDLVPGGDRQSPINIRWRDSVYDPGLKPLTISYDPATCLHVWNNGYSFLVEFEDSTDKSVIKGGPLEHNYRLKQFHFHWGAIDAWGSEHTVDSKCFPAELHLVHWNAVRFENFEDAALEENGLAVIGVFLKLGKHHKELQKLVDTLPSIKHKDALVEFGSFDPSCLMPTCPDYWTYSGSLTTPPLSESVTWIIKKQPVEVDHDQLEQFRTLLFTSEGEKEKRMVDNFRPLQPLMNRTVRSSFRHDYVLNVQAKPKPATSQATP
The target of test [7] is Carbonic anhydrase 9 (Homo sapiens) (UniProt Q16790).
In test [8] the target is Carbonic anhydrase 6 (Homo sapiens) (UniProt P23280).
Carbonic anhydrase 6 (Homo sapiens), sequence (P23280 whole entry): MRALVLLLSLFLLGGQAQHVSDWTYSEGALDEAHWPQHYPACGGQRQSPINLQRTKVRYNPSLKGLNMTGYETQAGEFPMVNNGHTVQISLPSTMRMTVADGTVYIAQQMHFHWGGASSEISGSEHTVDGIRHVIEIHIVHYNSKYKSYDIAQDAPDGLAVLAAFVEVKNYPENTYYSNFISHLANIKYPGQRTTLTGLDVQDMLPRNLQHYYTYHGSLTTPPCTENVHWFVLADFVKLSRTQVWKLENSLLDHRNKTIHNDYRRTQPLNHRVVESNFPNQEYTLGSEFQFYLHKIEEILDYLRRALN
Test [9] addresses Carbonic anhydrase 5A, mitochondrial (Homo sapiens) (UniProt P35218).
In test [10] the target is Carbonic anhydrase 13 (Mus musculus) (UniProt Q9D6N1). The test can be described thus: Inhibition of mouse full length carbonic anhydrase 13.
Carbonic anhydrase 13 (Mus musculus), sequence (Q9D6N1 whole entry, looked up): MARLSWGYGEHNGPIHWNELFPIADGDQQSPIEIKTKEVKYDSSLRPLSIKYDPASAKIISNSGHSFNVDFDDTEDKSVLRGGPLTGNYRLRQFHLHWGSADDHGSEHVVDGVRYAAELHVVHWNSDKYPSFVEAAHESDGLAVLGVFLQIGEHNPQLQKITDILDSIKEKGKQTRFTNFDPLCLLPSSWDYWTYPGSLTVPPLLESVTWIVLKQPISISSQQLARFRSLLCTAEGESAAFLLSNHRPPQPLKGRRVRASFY
Test [11] concerns the target Carbonic anhydrase 7 (Homo sapiens) (UniProt P43166).

Carbonic anhydrase 12 (Homo sapiens), sequence (O43570 whole entry): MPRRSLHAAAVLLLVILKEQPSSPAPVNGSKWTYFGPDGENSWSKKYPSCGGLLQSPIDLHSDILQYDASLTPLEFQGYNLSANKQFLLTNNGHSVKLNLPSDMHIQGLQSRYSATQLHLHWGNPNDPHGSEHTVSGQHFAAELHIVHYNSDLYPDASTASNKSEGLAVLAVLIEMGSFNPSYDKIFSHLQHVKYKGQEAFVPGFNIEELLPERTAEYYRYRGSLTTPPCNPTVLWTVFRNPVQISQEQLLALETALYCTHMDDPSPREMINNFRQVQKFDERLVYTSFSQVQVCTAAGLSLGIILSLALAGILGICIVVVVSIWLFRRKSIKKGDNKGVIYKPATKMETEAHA
Carbonic anhydrase 3 (Homo sapiens), sequence (P07451 whole entry): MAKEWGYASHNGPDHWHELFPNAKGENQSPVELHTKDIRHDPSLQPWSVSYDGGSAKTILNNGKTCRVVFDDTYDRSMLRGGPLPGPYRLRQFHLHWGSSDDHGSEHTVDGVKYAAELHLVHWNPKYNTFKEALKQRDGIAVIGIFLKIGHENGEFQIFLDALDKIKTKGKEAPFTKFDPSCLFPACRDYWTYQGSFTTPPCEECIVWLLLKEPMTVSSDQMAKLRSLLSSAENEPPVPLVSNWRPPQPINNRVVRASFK
Carbonic anhydrase 7 (Homo sapiens), sequence (P43166 whole entry): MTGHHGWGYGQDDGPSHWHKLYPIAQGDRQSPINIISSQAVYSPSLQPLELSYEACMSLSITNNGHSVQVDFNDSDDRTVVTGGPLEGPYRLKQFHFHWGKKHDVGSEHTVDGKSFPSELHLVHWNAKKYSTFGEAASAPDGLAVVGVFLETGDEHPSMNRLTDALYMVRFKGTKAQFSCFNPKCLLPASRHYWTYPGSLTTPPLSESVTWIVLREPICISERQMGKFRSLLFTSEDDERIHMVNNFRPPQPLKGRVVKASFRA
Carbonic anhydrase 5A, mitochondrial (Homo sapiens), sequence (P35218 whole entry): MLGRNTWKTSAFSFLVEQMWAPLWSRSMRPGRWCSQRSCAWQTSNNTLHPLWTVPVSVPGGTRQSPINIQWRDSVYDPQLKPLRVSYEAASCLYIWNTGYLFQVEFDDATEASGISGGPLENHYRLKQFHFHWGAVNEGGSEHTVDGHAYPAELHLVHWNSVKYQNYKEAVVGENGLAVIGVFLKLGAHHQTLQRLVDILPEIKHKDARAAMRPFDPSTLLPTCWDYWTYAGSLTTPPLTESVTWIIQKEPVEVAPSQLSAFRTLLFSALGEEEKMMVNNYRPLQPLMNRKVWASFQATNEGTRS

As to `CC(=O)/N=c1/sc(S(N)(=O)=O)nn1C`, the Ki in [1] is > 2 10^5nM.
The same measure, in the same setting: next, `NS(=O)(=O)c1cc(C(=O)O)c(NCc2ccco2)cc1Cl`: > 2 10^5nM.
Consider `Cc1ccccc1N1C(=O)c2cc(S(N)(=O)=O)c(Cl)cc2NC1C` (stereo not drawn), for which the pKi is 5.27 in test [2]; 5.70 in test [3]; 8.27 in test [4]; 6.67 in test [5]; 6.51 in [6]; 6.49 in test [7]. The pKi in [8] is 5.77; in [9], 6.12; in [10] it was 7.82. Also, in test [1], the inhibition constant (Ki) is > 2 10^5nM.
`CCC1NC(=O)c2cc(S(N)(=O)=O)c(Cl)cc2N1` (stereo not drawn): the pKi in test [3] was 5.90.
`NS(=O)(=O)c1cc(C2(O)NC(=O)c3ccccc32)ccc1Cl` (stereo not drawn): the pKi in test [2] is 5.38; in test [3] it was 6.86; in test [5], 6.71; in test [6] it was 8.05; in [7], 7.64; in test [8] it was 5.87. The negative logarithm of the Ki (pKi) in [9] is 6.04; in test [11] it was 8.55; in test [10], 7.82.
Regarding `CCCCNc1cc(C(=O)O)cc(S(N)(=O)=O)c1Oc1ccccc1`, the pKi in test [2] was 6.60; in test [3] it was 5.16; in test [4] it was 7.68; in [5] it was 6.52; in test [6], 6.80; in test [7] it was 7.59. Besides, the pKi in test [8] was 5.41; in [9] it was 6.15; in test [11] it was 7.21; in [10] it was 5.59. Besides, in test [1], the Ki is > 2 10^5nM.
For `CC1Nc2cc(Cl)c(S(N)(=O)=O)cc2S(=O)(=O)N1C` (stereo not drawn), the negative logarithm of the Ki (pKi) in test [2] is 5.39; in test [4], 6.45; in [5], 6.37; in test [6], 6.22; in [7] it was 6.44; in test [8] it was 5.44. For the same compound, the pKi in test [9] is 5.37; in test [10], 5.41. Moreover, in test [1], the Ki is > 2 10^5nM.
`CC1Nc2cc(C(F)(F)F)c(S(N)(=O)=O)cc2S(=O)(=O)N1C` (stereo not drawn): the pKi in [2] is 6.44; in test [3] it was 6.36; in test [4], 6.52; in [5] it was 5.32; in test [6], 6.37; in [7], 6.39. Besides, the pKi is 5.08 in test [8], 4.99 in test [9], 6.36 in test [11] and 4.81 in [10]. Also, the inhibition constant Ki in test [1] is > 2 10^5nM.
